Experimental data as given in publication PMC5424110, “Preclinical anti-arthritic study and pharmacokinetic properties of a potent histone deacetylase inhibitor MPT0G009” (Cell Death & Disease, 2014).

Test system: NFATc1 in RAW264.7 cells
Assay: NFAT luciferase reporter gene assay, RANKL-induced
Format: cell-based, mouse
Conditions: RAW264.7, 5 nM, RANKL 50 ng/ml 24 h
Description: We also assessed the effect of MTP0G009 on the DNA-binding activity of NF-κB and NFATc1, two pivotal transcriptional factors involved in RANKL-induced pathways for promoting osteoclast differentiation.[14], [15] When RAW264.7 cells that had been transiently transfected with reporter plasmids were treated with 5 nM MPT0G009 for 30 min before and during 24-h stimulation with RANKL, MPT0G009 inhibited RANKL-induced NF-κB (Figure 3d) and NFATc1 (Figure 3e) luciferase activity.
RAW264.7 cells or RA-FLSs were seeded 1 day before transfection. […] For the reporter gene assay, 100 μl of reporter lysis buffer (Promega Corp.) was added, then the cells were scraped off the dishes, centrifuged at 17 000 g for 30 s at 4 °C and the supernatants collected. Aliquots of cell lysates (20 μl) were placed in the wells of an opaque black 96-well microtiter plate, then 40 μl of luciferase substrate (Promega Corp.) was added and the luminescence immediately measured in a microplate luminometer (Beckman Coulter, Krefeld, Germany).

COc1ccc(S(=O)(=O)N2CCc3cc(C=CC(=O)NO)ccc32)cc1 [MPT0G009, 3-[1-(4-methoxybenzenesulfonyl)-2,3-dihydro-1H-indol-5-yl]-N-hydroxyacrylamide]
RANKL-induced NFATc1 luciferase activity: inhibited
